From US6706293B1, “Pharmaceutical composition capable of regulating the expression of adhesion molecules” (Especialidades Farmaceuticas Centrum, S.A., priority 1999, dated 2004)

Legend:
CD11b = assay: In vitro expression of adhesion molecules in peripheral blood mononuclear cells (flow cytometry); format: cell-based, human; conditions: PBMNc of 10 healthy individuals, 48 hours culture; PHA 10 μg/ml, Anapsos 150 μg/ml; CONTROL 20%
Method: (§1) Peripheral blood was extracted from 10 healthy individuals and the mononuclear cells was separated via Fycoll-Hypaque density gradient centrifugation. The cells was cultivated in plane bottom microtiter plates, at a titer of 1 million/ml for 48 hours in a CO2 incubator, with phytohaemagglutinin (PHA) at concentrations of 0, 0.5, 2, 5 and 10 μg/ml and/or with Anapsos at concentrations between 0 to 5000 μg/ml. Finalized the culturing, the lymphocytes was analyzed by flow cytometry. The expression of determined adhesion molecules (CD11a, CD11b, CD18, CD54) was studied in relation to the different conditions of stimuli. En parallel to the culture as described above, a culture for 5 days was made under the same conditions of stimuli as above. Tritium thymidine was added 16 hours before finalizing the culture. Terminated the culture, the cells was washed with the Harvester and flashing liquid was incorporated into the cells. The cellular incorporation of tritium thymidine was measured via a β counter. During the culturing, the cells were photographed via an inverted microscope.

CD11a = assay: as above; format: cell-based, human; conditions: PBMNc of 10 healthy individuals, 48 hours culture; PHA 10 μg/ml, Anapsos 150 μg/ml; CONTROL 17%
Method: as §1

CD18 = assay: as above; format: cell-based, human; conditions: PBMNc of 10 healthy individuals, 48 hours culture; PHA 10 μg/ml, Anapsos 150 μg/ml; CONTROL 20%
Method: as §1

CD54 = assay: as above; format: cell-based, human; conditions: PBMNc of 10 healthy individuals, 48 hours culture; PHA 10 μg/ml, Anapsos 150 μg/ml; CONTROL 2%
Method: as §1

Female WISTAR rats = assay: Anti-inflammatory activity in acute and chronic phase in rats (adjuvant + carrageenin foot volume, method of Mizushima); format: in vivo, rat; conditions: oral, Phenylbutazone 80 mg/Kg, extract 1.25 g per kg
Method: A study of the anti-inflammatory activity has been made in acute and chronic phase in rats. The method used was as described by Mizushima. The reference medicament (Phenylbutizene, dose 80 mg/Kg) and the products of the study (dose equivalent to 1.25 g extract per kg weight of animal) were dissolved in a solution of 1% of CMC (carboxymethylcellulose) in distillated water (w/v) and Tween 80: distillated water (0.2:3.3-v/v), in order to be administrated orally. Six days after inoculation, by intradermal route of 0.1 mL of the complete adjuvant Freund (DIFCO) in the basal part of the tail, was injected 0.1 mL of a suspension of carrageenin type IV 2% (w/v) at the aponeurosis of the left back foot. The volume of the foot of the animal was measured, using a water pletismometer, immediately before the carrageenin injection (basal volume) and afterwards at 3, 5, and 7 hours (acute phase of the inflammation) and at 24, 48, 72, and 96 hours (chronic phase of inflammation). The products of the study, the phenylbutazone, and the carrier were administrated, orally and in portions of 6 animals, 1 hour before the carrageenin injection and at 24, 48 and 72 hours. The percentage of inhibition of the inflammation was calculated by comparing the increase of the volume of the animal foot in respect of its basal volume, for each group of animals and in relation to the control group. The control group was given the carrier of phenylbutazone and the products of the study. The statistical significance was evaluated via the T Student test.

Compound	Expression, in vitro, of CD11b (CD11b) [%]	Expression, in vitro, of CD11a (CD11a) [%]	Expression, in vitro, of CD18 (CD18) [%]	Expression, in vitro, of CD54 (CD54) [%]	% INHIBITION OF THE INFLAMMATION 3 h (Female WISTAR rats; 3 h after carrageenin (acute phase)) [%]	% INHIBITION OF THE INFLAMMATION 5 h (Female WISTAR rats; 5 h after carrageenin (acute phase)) [%]	% INHIBITION OF THE INFLAMMATION 7 h (Female WISTAR rats; 7 h after carrageenin (acute phase)) [%]	% INHIBITION OF THE INFLAMMATION 24 h (Female WISTAR rats; 24 h after carrageenin (chronic phase)) [%]	% INHIBITION OF THE INFLAMMATION 48 h (Female WISTAR rats; 48 h after carrageenin (chronic phase)) [%]	% INHIBITION OF THE INFLAMMATION 72 h (Female WISTAR rats; 72 h after carrageenin (chronic phase)) [%]	% INHIBITION OF THE INFLAMMATION 96 h (Female WISTAR rats; 96 h after carrageenin (chronic phase)) [%]
phytohaemagglutinin [PHA]	35	22	27	9							
CCCCC1C(=O)N(c2ccccc2)N(c2ccccc2)C1=O [Phenylbutazone]					41	27	21	36	60	56	40
